Source: patent US9695155B2, “Herbicidal substituted pyrimidinyloxy benzene compounds” (E. I. DU PONT DE NEMOURS AND COMPANY, priority 2013, dated 2017)

Experiments:
giant foxtail = assay: Test A preemergence; format: in vivo, Setaria faberii; conditions: Setaria faberi, pre-emergence, 240 h, 0 to 100 scale where 0 is no effect and 100 is complete control
Outline: (§1)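 Injury scores run from 0, no effect, to 100, complete control, judged by eye against untreated plants roughly 10 days after treatment. Chemicals carried a surfactant in a non-phytotoxic solvent and went onto loam–sand soil preemergence or onto one- to two-leaf seedlings postemergence.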

corn = assay: Test A preemergence; format: in vivo, Zea mays; conditions: Zea mays, pre-emergence, 240 h, 0 to 100 scale where 0 is no effect and 100 is complete control
Outline: as §1

rice = assay: Test B flooded paddy test; format: in vivo, Oryza sativa; conditions: Oryza sativa; Flood, 250 g ai/ha; 0 to 100 scale where 0 is no effect and 100 is complete control; read-out: Plant response rating, Rice
Outline: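 2-leaf stage plants; pots flooded to 3 cm, compound added to paddy water, depth maintained. Greenhouse 13–15 d. Visual rating vs untreated controls, 0 (no effect) to 100 (complete control); dash = no result.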

yellow nutsedge [1] = assay: Test C preemergence; format: in vivo, Cyperus esculentus; conditions: Cyperus, pre-emergence, preemergence, read-out: Nutsedge, Yellow plant response rating
Outline: (§2)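 Visual injury score versus untreated controls, 0 = no effect, 100 = complete control, taken 13 to 15 days after treatment in the greenhouse. Pre-emergence pots held loam/sand; post-emergence plants grew in sphagnum peat/vermiculite mix and were sprayed at the 1- to 4-leaf stage.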

pigweed [2] = assay: Test C preemergence; format: in vivo, Amaranthus retroflexus; conditions: Amaranthus retroflexus, pre-emergence, preemergence, read-out: Pigweed plant response rating
Outline: as §2

soybean = assay: Test C preemergence; format: in vivo, Glycine max; conditions: Glycine max, pre-emergence, preemergence, read-out: Soybean plant response rating
Outline: as §2

velvetleaf = assay: Test C preemergence; format: in vivo, Abutilon theophrasti; conditions: Abutilon theophrasti, pre-emergence, preemergence, read-out: Velvetleaf plant response rating
Outline: as §2

blackgrass = assay: Test C postemergence; format: in vivo, Alopecurus myosuroides; conditions: Alopecurus myosuroides, post-emergence
Outline: as §2

Italian ryegrass = assay: Test C postemergence; format: in vivo, Lolium multiflorum
Outline: as §2

wheat, winter = assay: Test C postemergence; format: in vivo, Triticum aestivum
Outline: as §2

lambsquarters = assay: Test C postemergence; format: in vivo, Chenopodium album
Outline: as §2

yellow nutsedge [3] = assay: Test C postemergence; format: in vivo, Cyperus esculentus
Outline: as §2

pigweed [4] = assay: Test C postemergence; format: in vivo, Amaranthus retroflexus
Outline: as §2

ragweed = assay: Test C postemergence; format: in vivo, Ambrosia elatior
Outline: as §2

wild oat = assay: Test C postemergence; format: in vivo, Avena fatua
Outline: as §2

[5] = 16 g ai/ha, scale 0 to 100 (0 no effect, 100 complete control)
[6] = 62 g ai/ha, scale 0 (no effect) to 100 (complete control)
[7] = 125 g ai/ha, scale 0 (no effect) to 100 (complete control)
[8] = 31 g ai/ha, postemergence, visual rating, scale 0 to 100 (0 no effect, 100 complete control), 13 to 15 days

FC(F)(F)c1cn(-c2ccccc2Oc2ncc(Cl)cn2)nn1 [Compound 166, 5-chloro-2-[2-[4-(trifluoromethyl)-1H-1,2,3-triazol-1-yl]phenoxy]pyrimidine]
pest or weed control at 125 g/ha (giant foxtail; 125 g ai/ha, read-out: Plant response rating, Foxtail, Giant): 100%
pest or weed control at 500 g/ha (giant foxtail; 500 g ai/ha, read-out: Foxtail, Giant plant response rating): 100%
Corn plant response rating (crop injury, 0 = no effect, 100 = complete kill) at 125 g/ha (corn; 125 g ai/ha): 30%
plant injury at 500 g/ha (corn; 500 g ai/ha, read-out: Corn plant response rating): 30%
plant injury at 250 g/ha (rice): 75%
pest or weed control at 16 g/ha (yellow nutsedge [1]; [5]): 0%
pest or weed control at 62 g/ha (yellow nutsedge [1]; [6]): 35%
pest or weed control at 125 g/ha (yellow nutsedge [1]; [7]): 80%
pest or weed control at 16 g/ha (pigweed [2]; [5]): 100%
pest or weed control at 62 g/ha (pigweed [2]; [6]): 100%
pest or weed control at 125 g/ha (pigweed [2]; [7]): 100%
plant injury at 16 g/ha (soybean; [5]): 60%
plant injury at 62 g/ha (soybean; [6]): 95%
plant injury at 125 g/ha (soybean; [7]): 95%
pest or weed control at 16 g/ha (velvetleaf; [5]): 80%
pest or weed control at 62 g/ha (velvetleaf; [6]): 100%
pest or weed control at 125 g/ha (velvetleaf; [7]): 100%
pest or weed control at 16 g/ha (blackgrass; 16 g ai/ha, postemergence, 0 is no effect, 100 is complete control, read-out: Plant response rating (0 to 100), Blackgrass): 5%
pest or weed control at 31 g/ha (blackgrass; 31 g ai/ha, postemergence, visual rating, scale 0 to 100 (0 no effect, 100 complete control), 13 to 15 days, read-out: Blackgrass plant response rating): 10%
pest or weed control at 125 g/ha (blackgrass; 125 g ai/ha, postemergence, visual rating, scale 0 to 100 (0 no effect, 100 complete control), read-out: Plant response rating, Blackgrass): 60%
pest or weed control at 62 g/ha (blackgrass; Postemergence, 62 g ai/ha, scale 0 to 100 (0 no effect, 100 complete control), read-out: Plant response rating, Blackgrass): 45%
Ryegrass, Italian plant response rating (Italian ryegrass; [8]): 5
pest or weed control at 16 g/ha (Italian ryegrass; Lolium multiflorum, post-emergence, 16 g ai/ha, postemergence, 0 is no effect, 100 is complete control, read-out: Plant response rating (0 to 100), Ryegrass, Italian): 0%
pest or weed control at 125 g/ha (Italian ryegrass; Lolium multiflorum, post-emergence, 125 g ai/ha, postemergence, visual rating, scale 0 to 100 (0 no effect, 100 complete control), read-out: Plant response rating, Ryegrass, Italian): 30%
pest or weed control at 62 g/ha (Italian ryegrass; Lolium multiflorum, post-emergence, Postemergence, 62 g ai/ha, scale 0 to 100 (0 no effect, 100 complete control), read-out: Plant response rating, Ryegrass, Italian): 15%
Wheat plant response rating (wheat, winter; [8]): 5
plant injury at 16 g/ha (wheat, winter; Triticum aestivum, post-emergence, 16 g ai/ha, postemergence, 0 is no effect, 100 is complete control, read-out: Plant response rating (0 to 100), Wheat): 5%
plant injury at 125 g/ha (wheat, winter; Triticum aestivum, post-emergence, 125 g ai/ha, postemergence, visual rating, scale 0 to 100 (0 no effect, 100 complete control), read-out: Plant response rating, Wheat): 20%
plant injury at 62 g/ha (wheat, winter; Triticum aestivum, post-emergence, Postemergence, 62 g ai/ha, scale 0 to 100 (0 no effect, 100 complete control), read-out: Plant response rating, Wheat): 35%
Lambsquarters plant response rating (lambsquarters; [8]): 80
pest or weed control at 16 g/ha (lambsquarters; Chenopodium album, post-emergence, 16 g ai/ha, postemergence, 0 is no effect, 100 is complete control, read-out: Plant response rating (0 to 100), Lambsquarters): 40%
pest or weed control at 125 g/ha (lambsquarters; Chenopodium album, post-emergence, 125 g ai/ha, postemergence, visual rating, scale 0 to 100 (0 no effect, 100 complete control), read-out: Plant response rating, Lambsquarters): 98%
pest or weed control at 62 g/ha (lambsquarters; Chenopodium album, post-emergence, Postemergence, 62 g ai/ha, scale 0 to 100 (0 no effect, 100 complete control), read-out: Plant response rating, Lambsquarters): 95%
Nutsedge, Yellow plant response rating (yellow nutsedge [3]; [8]): 5
pest or weed control at 16 g/ha (yellow nutsedge [3]; Cyperus, post-emergence, 16 g ai/ha, postemergence, 0 is no effect, 100 is complete control, read-out: Plant response rating (0 to 100), Nutsedge, Yellow): 0%
pest or weed control at 125 g/ha (yellow nutsedge [3]; Cyperus, post-emergence, 125 g ai/ha, postemergence, visual rating, scale 0 to 100 (0 no effect, 100 complete control), read-out: Plant response rating, Nutsedge, Yellow): 5%
pest or weed control at 62 g/ha (yellow nutsedge [3]; Cyperus, post-emergence, Postemergence, 62 g ai/ha, scale 0 to 100 (0 no effect, 100 complete control), read-out: Plant response rating, Nutsedge, Yellow): 5%
Pigweed plant response rating (pigweed [4]; [8]): 85
pest or weed control at 16 g/ha (pigweed [4]; Amaranthus retroflexus, post-emergence, 16 g ai/ha, postemergence, 0 is no effect, 100 is complete control, read-out: Plant response rating (0 to 100), Pigweed): 80%
pest or weed control at 125 g/ha (pigweed [4]; Amaranthus retroflexus, post-emergence, 125 g ai/ha, postemergence, visual rating, scale 0 to 100 (0 no effect, 100 complete control), read-out: Plant response rating, Pigweed): 98%
pest or weed control at 62 g/ha (pigweed [4]; Amaranthus retroflexus, post-emergence, Postemergence, 62 g ai/ha, scale 0 to 100 (0 no effect, 100 complete control), read-out: Plant response rating, Pigweed): 90%
Ragweed plant response rating (ragweed; [8]): 45
pest or weed control at 16 g/ha (ragweed; Ambrosia artemisiifolia, post-emergence, 16 g ai/ha, postemergence, 0 is no effect, 100 is complete control, read-out: Plant response rating (0 to 100), Ragweed): 35%
pest or weed control at 125 g/ha (ragweed; Ambrosia artemisiifolia, post-emergence, 125 g ai/ha, postemergence, visual rating, scale 0 to 100 (0 no effect, 100 complete control), read-out: Plant response rating, Ragweed): 80%
pest or weed control at 62 g/ha (ragweed; Ambrosia artemisiifolia, post-emergence, Postemergence, 62 g ai/ha, scale 0 to 100 (0 no effect, 100 complete control), read-out: Plant response rating, Ragweed): 60%
Oat, Wild plant response rating (wild oat; [8]): 10
pest or weed control at 16 g/ha (wild oat; Avena fatua, post-emergence, 16 g ai/ha, postemergence, 0 is no effect, 100 is complete control, read-out: Plant response rating (0 to 100), Oat, Wild): 5%
pest or weed control at 125 g/ha (wild oat; Avena fatua, post-emergence, 125 g ai/ha, postemergence, visual rating, scale 0 to 100 (0 no effect, 100 complete control), read-out: Plant response rating, Oat, Wild): 50%
pest or weed control at 62 g/ha (wild oat; Avena fatua, post-emergence, Postemergence, 62 g ai/ha, scale 0 to 100 (0 no effect, 100 complete control), read-out: Plant response rating, Oat, Wild): 35%
